Source: PubChem BioAssay AID256 (DTP/NCI, 2004)
Several values for one entry are separate records, joined by “and”; a condition that tells them apart may be missing. Identical values can stand only once. Inconclusive results and toxic doses are left out.

Tested on: CD2F1 mice, L1210 leukemia ip, survival T/C
Test: NCI In Vivo Anticancer Drug Screen. Data for tumor model L1210 Leukemia (intraperitoneal) in CD2F1 (CDF1) mice
Conditions: higher = longer survival
Outline: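 Vehicle-treated tumor-bearing mice served as controls (C) for compound-treated mice (T). Reported figure is T divided by C.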

[1] = endpoint: mean survival time, dose: 12.5 mg/kg/injection, schedule: Q01DX005 (ip), vehicle: other
[2] = endpoint: mean survival time, dose: 25.0 mg/kg/injection, schedule: Q01DX005 (ip), vehicle: other
[3] = endpoint: mean survival time, dose: 50.0 mg/kg/injection, schedule: Q01DX005 (ip), vehicle: other
[4] = endpoint: mean survival time, dose: 100.0 mg/kg/injection, schedule: Q01DX005 (ip), vehicle: other
[5] = endpoint: mean survival time, dose: 200.0 mg/kg/injection, schedule: Q01DX005 (ip), vehicle: other
[6] = endpoint: mean survival time, dose: 12.5 mg/kg/injection, schedule: Q01DX009 (ip), vehicle: saline with Tween-80
[7] = endpoint: mean survival time, dose: 25.0 mg/kg/injection, schedule: Q01DX009 (ip), vehicle: saline with Tween-80
[8] = endpoint: mean survival time, dose: 50.0 mg/kg/injection, schedule: Q01DX009 (ip), vehicle: saline with Tween-80
[9] = endpoint: mean survival time, dose: 100.0 mg/kg/injection, schedule: Q01DX009 (ip), vehicle: saline with Tween-80

SMILES: O=S1(=O)CS(=O)(=O)OCCO1
- T/C (endpoint: median survival time, dose: 6.25 mg/kg/injection, schedule: Q01DX009 (oral), vehicle: Klucel (hydroxypropylcellulose) (HPC)): 112 % of control
- T/C (endpoint: median survival time, dose: 12.5 mg/kg/injection, schedule: Q01DX001 (oral), vehicle: Klucel (hydroxypropylcellulose) (HPC)): 101 % of control
- T/C (endpoint: median survival time, dose: 22.0 mg/kg/injection, schedule: Q06HX002 (oral), vehicle: Klucel (hydroxypropylcellulose) (HPC)): 113 % of control
- T/C (endpoint: median survival time, dose: 25.0 mg/kg/injection, schedule: Q01DX001 (oral), vehicle: Klucel (hydroxypropylcellulose) (HPC)): 112 % of control
- T/C (endpoint: median survival time, dose: 25.0 mg/kg/injection, schedule: Q01DX009 (oral), vehicle: Klucel (hydroxypropylcellulose) (HPC)): 213 % of control
- T/C (endpoint: median survival time, dose: 33.0 mg/kg/injection, schedule: Q01DX001 (oral), vehicle: Klucel (hydroxypropylcellulose) (HPC)): 117 % of control
- T/C (endpoint: median survival time, dose: 33.0 mg/kg/injection, schedule: Q01DX005 (oral), vehicle: Klucel (hydroxypropylcellulose) (HPC)): 103 % of control
- T/C (endpoint: median survival time, dose: 33.0 mg/kg/injection, schedule: Q06HX002 (oral), vehicle: Klucel (hydroxypropylcellulose) (HPC)): 117 % of control
- T/C (endpoint: median survival time, dose: 49.5 mg/kg/injection, schedule: Q01DX001 (oral), vehicle: Klucel (hydroxypropylcellulose) (HPC)): 123 % of control
- T/C (endpoint: median survival time, dose: 50.0 mg/kg/injection, schedule: Q01DX001 (oral), vehicle: Klucel (hydroxypropylcellulose) (HPC)): 119 % of control
- T/C (endpoint: median survival time, dose: 50.0 mg/kg/injection, schedule: Q01DX009 (oral), vehicle: Klucel (hydroxypropylcellulose) (HPC)): 178 % of control and 337 % of control
- T/C (endpoint: median survival time, dose: 74.2 mg/kg/injection, schedule: Q01DX005 (oral), vehicle: Klucel (hydroxypropylcellulose) (HPC)): 185 % of control
- T/C (endpoint: median survival time, dose: 100.0 mg/kg/injection, schedule: Q01DX001 (oral), vehicle: Klucel (hydroxypropylcellulose) (HPC)): 124 % of control
- T/C (endpoint: median survival time, dose: 100.0 mg/kg/injection, schedule: Q01DX009 (oral), vehicle: Klucel (hydroxypropylcellulose) (HPC)): 238 % of control
- T/C (endpoint: median survival time, dose: 111.2 mg/kg/injection, schedule: Q01DX005 (oral), vehicle: Klucel (hydroxypropylcellulose) (HPC)): 212 % of control
- T/C (endpoint: median survival time, dose: 112.5 mg/kg/injection, schedule: Q01DX001 (oral), vehicle: Klucel (hydroxypropylcellulose) (HPC)): 235 % of control
- T/C (endpoint: median survival time, dose: 166.8 mg/kg/injection, schedule: Q01DX001 (oral), vehicle: Klucel (hydroxypropylcellulose) (HPC)): 160 % of control
- T/C (endpoint: median survival time, dose: 166.8 mg/kg/injection, schedule: Q01DX005 (oral), vehicle: Klucel (hydroxypropylcellulose) (HPC)): 272 % of control
- T/C (endpoint: median survival time, dose: 200.0 mg/kg/injection, schedule: Q01DX001 (oral), vehicle: Klucel (hydroxypropylcellulose) (HPC)): 178 % of control
- T/C (endpoint: median survival time, dose: 250.0 mg/kg/injection, schedule: Q01DX001 (oral), vehicle: Klucel (hydroxypropylcellulose) (HPC)): 225 % of control

SMILES: COc1cccc(C(=O)O)c1C(=O)O
- T/C [1]: 92 % of control
- T/C [2]: 92 % of control
- T/C [3]: 89 % of control
- T/C [4]: 98 % of control
- T/C [5]: 101 % of control
- T/C (endpoint: mean survival time, dose: 400.0 mg/kg/injection, schedule: Q01DX005 (ip), vehicle: other): 96 % of control

SMILES: CCCCCCCCCCCCCCCCC/C=C1\CC(=O)OC1=O
- T/C (endpoint: mean survival time, dose: 100.0 mg/kg/injection, schedule: Q04DX003 (ip), vehicle: saline with Tween-80): 88 % of control

SMILES: O=C(NNC(=O)c1cccc(C(=O)NNC(=O)c2ccc(Cl)c(Cl)c2)n1)c1ccc(Cl)c(Cl)c1
- T/C (endpoint: median survival time, dose: 43.2 mg/kg/injection, schedule: Q01DX005 (ip), vehicle: Klucel (hydroxypropylcellulose) (HPC)): 110 % of control
- T/C (endpoint: median survival time, dose: 72.0 mg/kg/injection, schedule: Q01DX005 (ip), vehicle: Klucel (hydroxypropylcellulose) (HPC)): 115 % of control
- T/C (endpoint: median survival time, dose: 120.0 mg/kg/injection, schedule: Q01DX005 (ip), vehicle: Klucel (hydroxypropylcellulose) (HPC)): 115 % of control and 116 % of control
- T/C (endpoint: median survival time, dose: 200.0 mg/kg/injection, schedule: Q01DX005 (ip), vehicle: Klucel (hydroxypropylcellulose) (HPC)): 120 % of control and 86 % of control
- T/C (endpoint: median survival time, dose: 333.33 mg/kg/injection, schedule: Q01DX005 (ip), vehicle: Klucel (hydroxypropylcellulose) (HPC)): 92 % of control

SMILES: [NH-]CC[NH-].[NH-]CC[NH-].[NH-]CC[NH-].[Ni]
- T/C (endpoint: mean survival time, dose: 6.25 mg/kg/injection, schedule: Q01DX009 (ip), vehicle: saline): 103 % of control
- T/C (endpoint: mean survival time, dose: 6.25 mg/kg/injection, schedule: Q04DX003 (ip), vehicle: saline): 97 % of control
- T/C (endpoint: mean survival time, dose: 12.5 mg/kg/injection, schedule: Q01DX009 (ip), vehicle: saline): 101 % of control
- T/C (endpoint: mean survival time, dose: 12.5 mg/kg/injection, schedule: Q04DX003 (ip), vehicle: saline): 93 % of control
- T/C (endpoint: mean survival time, dose: 25.0 mg/kg/injection, schedule: Q01DX009 (ip), vehicle: saline): 92 % of control
- T/C (endpoint: mean survival time, dose: 25.0 mg/kg/injection, schedule: Q04DX003 (ip), vehicle: saline): 106 % of control

SMILES: CSc1nc2[nH]c(C)cc2c(=O)[nH]1
- T/C (endpoint: median survival time, dose: 50.0 mg/kg/injection, schedule: Q01DX005 (ip), vehicle: saline): 102 % of control
- T/C (endpoint: median survival time, dose: 100.0 mg/kg/injection, schedule: Q01DX005 (ip), vehicle: saline): 95 % of control
- T/C (endpoint: median survival time, dose: 200.0 mg/kg/injection, schedule: Q01DX005 (ip), vehicle: saline): 92 % of control

SMILES: S=c1nccc[nH]1.[Pt]
- T/C (endpoint: mean survival time, dose: 3.13 mg/kg/injection, schedule: Q04DX003 (ip), vehicle: distilled water + Tween-80): 98 % of control
- T/C (endpoint: mean survival time, dose: 6.25 mg/kg/injection, schedule: Q04DX003 (ip), vehicle: distilled water + Tween-80): 103 % of control
- T/C (endpoint: mean survival time, dose: 12.5 mg/kg/injection, schedule: Q04DX003 (ip), vehicle: distilled water + Tween-80): 98 % of control
- T/C (endpoint: mean survival time, dose: 25.0 mg/kg/injection, schedule: Q04DX003 (ip), vehicle: distilled water + Tween-80): 97 % of control
- T/C (endpoint: mean survival time, dose: 50.0 mg/kg/injection, schedule: Q04DX003 (ip), vehicle: distilled water + Tween-80): 90 % of control
- T/C (endpoint: mean survival time, dose: 100.0 mg/kg/injection, schedule: Q04DX003 (ip), vehicle: distilled water + Tween-80): 98 % of control
- T/C (endpoint: mean survival time, dose: 200.0 mg/kg/injection, schedule: Q04DX003 (ip), vehicle: distilled water + Tween-80): 98 % of control

SMILES: O=[N+]([O-])c1ccc(N/N=C/c2ccccn2)cc1
- T/C (endpoint: mean survival time, dose: 100.0 mg/kg/injection, schedule: Q04DX003 (ip), vehicle: Klucel (hydroxypropylcellulose) (HPC)): 96 % of control
- T/C (endpoint: mean survival time, dose: 200.0 mg/kg/injection, schedule: Q04DX003 (ip), vehicle: Klucel (hydroxypropylcellulose) (HPC)): 89 % of control
- T/C (endpoint: mean survival time, dose: 400.0 mg/kg/injection, schedule: Q04DX003 (ip), vehicle: Klucel (hydroxypropylcellulose) (HPC)): 94 % of control

SMILES: O=C(N=C1OC2C(OC(=O)c3ccccc3)C(COC(=O)c3ccccc3)OC2N1C(=O)c1ccccc1)c1ccccc1 (stereo not drawn)
- T/C (endpoint: mean survival time, dose: 100.0 mg/kg/injection, schedule: Q01DX009 (ip), vehicle: saline): 100 % of control
- T/C (endpoint: mean survival time, dose: 200.0 mg/kg/injection, schedule: Q01DX009 (ip), vehicle: saline): 100 % of control
- T/C (endpoint: median survival time, dose: 100.0 mg/kg/injection, schedule: Q04DX003 (ip), vehicle: saline sonified): 87 % of control
- T/C (endpoint: median survival time, dose: 200.0 mg/kg/injection, schedule: Q04DX003 (ip), vehicle: saline sonified): 100 % of control
- T/C (endpoint: median survival time, dose: 400.0 mg/kg/injection, schedule: Q04DX003 (ip), vehicle: saline sonified): 100 % of control

SMILES: O=C1c2ccccc2C(=O)c2c(O)c(Cc3cccnc3)cc(O)c21
- T/C (endpoint: mean survival time, dose: 100.0 mg/kg/injection, schedule: Q01DX009 (ip), vehicle: saline sonified): 98 % of control
- T/C (endpoint: mean survival time, dose: 200.0 mg/kg/injection, schedule: Q01DX009 (ip), vehicle: saline sonified): 98 % of control
- T/C (endpoint: mean survival time, dose: 400.0 mg/kg/injection, schedule: Q01DX009 (ip), vehicle: saline sonified): 102 % of control

SMILES: CCOC(=O)NN=C1CCCC1
- T/C [6]: 88 % of control
- T/C [7]: 88 % of control
- T/C [8]: 92 % of control

SMILES: O=C(C[n+]1cccc(C(=O)NCc2ccccc2)c1)Nc1ccccc1
- T/C (endpoint: mean survival time, dose: 100.0 mg/kg/injection, schedule: Q04DX003 (ip), vehicle: saline): 96 % of control

SMILES: CSc1nccc2c1nnn2C1OC(CO)C(O)C1O (stereo not drawn)
- T/C [1]: 101 % of control
- T/C [2]: 101 % of control
- T/C [3]: 97 % of control
- T/C [4]: 101 % of control
- T/C [5]: 100 % of control

SMILES: COc1cc(Cl)ccc1NC(=O)Nc1c(C)n(C)n(-c2ccccc2)c1=O
- T/C [8]: 90 % of control
- T/C [9]: 90 % of control

SMILES: O=C(Nc1cccc2c(NC(=O)c3ccccc3)cccc12)c1ccccc1
- T/C [9]: 94 % of control
- T/C (endpoint: mean survival time, dose: 200.0 mg/kg/injection, schedule: Q01DX009 (ip), vehicle: saline with Tween-80): 95 % of control
- T/C (endpoint: mean survival time, dose: 400.0 mg/kg/injection, schedule: Q01DX009 (ip), vehicle: saline with Tween-80): 91 % of control

SMILES: COC(=O)c1ccc[n+](CCc2c[nH]c3ccccc23)c1
- T/C [6]: 92 % of control
- T/C [7]: 97 % of control
- T/C [8]: 96 % of control and 107 % of control
- T/C (endpoint: mean survival time, dose: 100.0 mg/kg/injection, schedule: Q01DX001 (ip), vehicle: saline with Tween-80): 101 % of control
- T/C (endpoint: mean survival time, dose: 200.0 mg/kg/injection, schedule: Q01DX001 (ip), vehicle: saline with Tween-80): 96 % of control
